Laboratory results published in patent US6426329B1, “Immunosuppressant activity of insulin-like growth factor I (IGF-I)” (Fujisawa Pharmaceutical Co., Ltd., priority 1997, dated 2002).

How the values were obtained:
IGF-I = IGF-I producing action of FK506 (liver and blood IGF-I by rat IGF-I RIA kit after 7 days oral dosing); assay type: in vivo; settings: male SD rats; for increase of blood concentration of IGF-I / increase of concentration of IGF-I in the liver: 0.5 hour after final dose
Experimental: Male SD rats aged 6 weeks were orally dosed with FK506 once daily for 7 consecutive days, and at 0.5 hour following the final dose, the liver and blood were isolated. The blood IGF-I concentration was measured by acid-ethanol extraction and subsequent assay with a rat IGF-I RIA kit (DSL). The hepatic IGF-I level was measured by acetic acid extraction and subsequent assay with the rat IGF-I RIA kit. Five rats per group were used.

Bile secretions [1] = assay: Choleretic action of FK506 and synergistic action of IGF-I (bile secretion in bile duct-cannulated anesthetized rats); assay type: in vivo, rat; settings: for effect on choleresis (in words): summary of Table 2 data, IGF-I in combination with FK506
Experimental: Using male SD rats (6 weeks old) under urethane anesthesia (1.2 g/5 ml/kg), a midline incision was made in the abdominal region. Ligation was performed at the lower part of the common bile duct and a polyethylene tube (PE10, Intramedics) was inserted from above and ligated in position. The bile was thus withdrawn extracorporeally and pooled. The rat was kept warm on a hot plate at 37° C. and the volume of the bile withdrawn-was measured at 30-min intervals. […] As to FK506, FK506 Inj. (1P mg/1 ml vial) was used. Rats in the control group received saline both intravenously and subcutaneously. The bile was collected up to 180min after medication. As the baseline secretions, the average of the values at 2 points of time immediately preceding drug administration was used.

Bile secretions [2] = assay: Anticholeretic action of CsA and antagonizing action of IGF-I (bile secretion in bile duct-cannulated anesthetized rats); assay type: in vivo, rat
Experimental: Using male SD rats (7 weeks old) under urethane anesthesia (1.2 g/5 ml/kg), a midline incision was made in the abdominal region. Ligation was performed at the lower part of the common bile duct and a polyethylene tube (PE10, Intramedics) was inserted from above and ligated in position. The bile was thus withdrawn extracorporeally and pooled. The rat was kept warm on a hot plate at 37° C. and the volume of the bile withdrawn was measured at 30-min intervals. […] (250 mg/5 ml vial) was diluted with saline. Rats in the control group received saline both intravenously and subcutaneously. The bile was collected up to 180 min after drug administration. As the baseline secretions, the average of the values at 2 points of time immediately preceding drug administration was used.

[3] = FK506 1 mg/kg orally once daily for 7 days
[4] = FK506 10 mg/kg orally once daily for 7 days
[5] = Before administration (baseline)
[6] = Before administration (baseline), Mean ± S.E.

Compound: C=CC[C@@H]1/C=C(\C)C[C@H](C)C[C@H](OC)[C@H]2O[C@@](O)(C(=O)C(=O)N3CCCC[C@H]3C(=O)O[C@H](/C(C)=C/[C@@H]3CC[C@@H](O)[C@H](OC)C3)[C@H](C)[C@@H](O)CC1=O)[C@H](C)C[C@@H]2OC [FK506, 17-allyl-1,14-dihydroxy-12-[2-(4-hydroxy-3-methoxycyclohexyl)-1-methylvinyl]-23,25-dimethoxy-13,19,21,27-tetramethyl-11,28-dioxa-4-azatricyclo[22.3.1.0^4,9] octacos-18-ene-2,3,10,16-tetraone]
- increase of blood concentration of IGF-I (IGF-I; [3]): 14%
- increase of concentration of IGF-I in the liver (IGF-I; [3]): 28%
- increase of blood concentration of IGF-I (IGF-I; [4]): 11%
- increase of concentration of IGF-I in the liver (IGF-I; [4]): 26%
- IGF-I producing activity (in words) (IGF-I; liver): express IGF-I producing activity in the liver
- effect on choleresis (in words) (Bile secretions [1]): has a choleretic action

Compound: IGF-I: insulin-like growth factor I (IGF-I), dissolved in saline, given subcutaneously
- Bile secretions, % of preadministration baseline (Bile secretions [2]; 0˜30 min after administration, CsA 10 mg/kg i.v., IGF-I 10 mg/kg s.c.): (109) %
- Bile secretions, % of preadministration baseline (Bile secretions [2]; 30˜60 min after administration, CsA 10 mg/kg i.v., IGF-I 10 mg/kg s.c.): (121) %
- Bile secretions, % of preadministration baseline (Bile secretions [2]; 60˜90 min after administration, CsA 10 mg/kg i.v., IGF-I 10 mg/kg s.c.): (124) %
- Bile secretions, % of preadministration baseline (Bile secretions [2]; 90˜120 min after administration, CsA 10 mg/kg i.v., IGF-I 10 mg/kg s.c.): (118) %
- Bile secretions, % of preadministration baseline (Bile secretions [2]; 120˜150 min after administration, CsA 10 mg/kg i.v., IGF-I 10 mg/kg s.c.): (121) %
- Bile secretions, % of preadministration baseline (Bile secretions [2]; 150˜180 min after administration, CsA 10 mg/kg i.v., IGF-I 10 mg/kg s.c.): (118) %
- Bile secretions, % of preadministration baseline (Bile secretions [2]; [5]): (100) %
- Bile secretions (Bile secretions [2]; [6]): 0.33 ± 0.03 ml/30 min
- effect on choleresis (in words) (Bile secretions [2]; summary of Table 1 data, IGF-I in combination with CsA): enhances choleresis
- Bile secretions, % of preadministration baseline (Bile secretions [1]; 0˜30 min after administration, 10 mg/kg i.v. immunosuppressant, IGF-I 10 mg/kg s.c.): (109) %
- Bile secretions, % of preadministration baseline (Bile secretions [1]; 30˜60 min after administration, 10 mg/kg i.v. immunosuppressant, IGF-I 10 mg/kg s.c.): (117) %
- Bile secretions, % of preadministration baseline (Bile secretions [1]; 60˜90 min after administration, 10 mg/kg i.v. immunosuppressant, IGF-I 10 mg/kg s.c.): (120) %
- Bile secretions, % of preadministration baseline (Bile secretions [1]; 90˜120 min after administration, 10 mg/kg i.v. immunosuppressant, IGF-I 10 mg/kg s.c.): (120) %
- Bile secretions, % of preadministration baseline (Bile secretions [1]; 120˜150 min after administration, 10 mg/kg i.v. immunosuppressant, IGF-I 10 mg/kg s.c.): (123) %
- Bile secretions, % of preadministration baseline (Bile secretions [1]; 150˜180 min after administration, 10 mg/kg i.v. immunosuppressant, IGF-I 10 mg/kg s.c.): (114) %
- Bile secretions, % of preadministration baseline (Bile secretions [1]; [5]): (100) %
- Bile secretions (Bile secretions [1]; [6]): 0.35 ± 0.01 ml/30 min
- effect on choleresis (in words) (Bile secretions [1]): enhances choleresis
